The values that follow are results of earlier work, collected in patent US5424332A, “Pharmaceutical composition and process for the production thereof” (priority 1993, dated 1995).

Molecules are shown by their SMILES.

The conditions of data set [1]: high doses; parenteral, dermal and, in particular, peroral administration.
Data set [2] relates to mitomycin C toxic effects.
Another data set relates to Ehrlich ascites tumor. The following applies: mice.

On to `O=C(O)/C(O)=C(\O)C(=O)O` [dihydroxy fumaric acid], for which the “adverse effects and toxicity” value in data set [1] was “unacceptable rate of adverse effects and high toxicity”.
In the case of `NC(=O)/C=C/C(N)=O` [fumaramide], in data set [1], the “adverse effects and toxicity” value was “unacceptable rate of adverse effects and high toxicity”.
In the case of `O=C(O)/C=C/C(=O)O` [fumaric acid], the anti-psoriatic action entry in the data set with psoriasis is on record as “anti-psoriatic”. In addition, the “toxic effects of mitomycin C” value in data set [2] is “reduces the toxic effects”. Also, the “growth of the Ehrlich ascites tumor” value with Ehrlich ascites tumor is reported as “impedes the growth”. The “adverse effects and toxicity” value in data set [1] is “unacceptable rate of adverse effects and high toxicity”.
Regarding `N#C/C=C/C#N` [fumaronitrile], the “adverse effects and toxicity” value in data set [1] was “unacceptable rate of adverse effects and high toxicity”.
